Laboratory results: PubChem BioAssay (NCI)
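1) Cells in 96-well plates. 2) Compound, 48 h, 5 concentrations. 3) Linear interpolation between surrounding doses. 4) Unreached endpoint = highest concentration. Here, GI50 denotes the concentration required for 50% inhibition of growth. TGI: total growth inhibition.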

Legend:
Test in all cases: NCI-60 cell line screen, 48 h
A549 NSCLC = test system: A549 NSCLC
HT29 colon = test system: HT29 colon
MDA-MB-435 = test system: MDA-MB-435
NCI-H226 lung = test system: NCI-H226 lung
OVCAR-8 ovarian = test system: OVCAR-8 ovarian
RXF 393 renal = test system: RXF 393 renal
SF-295 CNS = test system: SF-295 CNS
SN12C renal = test system: SN12C renal

| SMILES | GI50 (A549 NSCLC) [µM] | TGI (A549 NSCLC) [µM] | GI50 (HT29 colon) [µM] | TGI (HT29 colon) [µM] | GI50 (MDA-MB-435) [µM] | TGI (MDA-MB-435) [µM] | GI50 (NCI-H226 lung) [µM] | TGI (NCI-H226 lung) [µM] | GI50 (OVCAR-8 ovarian) [µM] | TGI (OVCAR-8 ovarian) [µM] | GI50 (RXF 393 renal) [µM] | TGI (RXF 393 renal) [µM] | GI50 (SF-295 CNS) [µM] | TGI (SF-295 CNS) [µM] | GI50 (SN12C renal) [µM] | TGI (SN12C renal) [µM] |
| --- | --- | --- | --- | --- | --- | --- | --- | --- | --- | --- | --- | --- | --- | --- | --- | --- |
| Cc1c(N(C(=O)c2cc(-c3cc(Cl)ccc3C(=O)N3Cc4ccccc4C[C@H]3CN3CCOCC3)n(C)c2C)c2ccc(O)cc2)cc(C#N)n1C | 27.6 | > 100 | 18.7 | > 100 | 16.5 | 40.7 | 14.1 | 44.4 | 55.8 | > 100 | 3.88 | 17.6 | 13.2 | > 100 | 19.5 | > 100 |
| CNC(=O)c1ccc(Nc2nc(OC3CCCC3)c3c(-c4ccc5nc(C)oc5c4)c[nH]c3n2)c(OC)c1 | 0.201 | > 100 | 4.99 | > 100 | > 100 | > 100 | 9.04 | > 100 | 0.6 | > 100 | > 100 | > 100 | – | > 100 | 1.32 | > 100 |
| N#Cc1c(SCc2ccccc2)nc2[nH]c(=S)[nH]c(=S)c2c1-c1ccco1 | 64.1 | > 100 | > 100 | > 100 | 59.5 | > 100 | 15.1 | 52.8 | 67.9 | > 100 | 37.9 | > 100 | 43.5 | > 100 | 15.7 | 36.1 |
| CCOC(=O)c1ccc2[nH]c(Cc3[nH]c4ccc(C(=O)OCC)cc4c3C)c(C)c2c1 | 1.05 | 5.87 | 0.821 | 8.2 | 3.53 | 48.8 | 4.7 | 23.2 | 1.21 | 11.7 | 2.75 | 14.7 | 1.42 | 13.5 | 4.92 | 24.7 |
| CCCN1C(=O)/C(=C/c2ccc(O)cc2)SC1=Nc1ccccc1 | 23.9 | 58.2 | 33.5 | 86.7 | 21.6 | 41.5 | 30.3 | 54.1 | 25.8 | 68.8 | 23.2 | 51.4 | 27.9 | 68.7 | 18.4 | 35.5 |
| C[C@]12CC[C@H]3[C@@H](CC=C4C[C@@H](O)CC[C@@]43C)[C@@H]1C/C(=C\c1cccc(OCCCn3ccnc3)c1)[C@@H]2O | 12.9 | 28.5 | 3.85 | 18.1 | 9.99 | 42.6 | 16.1 | 43.4 | 14.4 | 43.1 | 4.7 | 20.8 | 6.8 | 26.4 | 15.8 | 38 |
| O=C(Nc1nc(-c2ccc(Cl)cc2)cs1)c1ccc(O)c(O)c1 | 2.91 | 14.3 | 11.6 | 24.7 | 3.18 | 14.4 | 4.65 | 19.7 | 4.14 | 16.7 | 3.82 | 17 | 11.5 | 26.2 | 3.67 | 15.7 |
| Cc1cc(Nc2nc(N3CCOCC3)nc3ccccc23)n[nH]1 | 5.2 | > 100 | 5.09 | 52.8 | 4.03 | > 100 | 4.13 | 45.2 | 21.1 | > 100 | 1.35 | 6.17 | 6.19 | 74.4 | 4.23 | > 100 |
| COc1cc(/C=C2\C[C@H]3[C@@H]4CC=C5C[C@@H](OC(C)=O)CC[C@]5(C)[C@H]4CC[C@]3(C)[C@H]2OC(C)=O)ccc1OCCCn1ccnc1 | 8.45 | 20.4 | 18.5 | > 50 | 10.2 | 22.1 | 7.78 | 24.6 | 10.7 | 24.7 | 1.78 | 10.4 | 4.77 | 12.4 | 8.84 | 21.9 |
| Cc1cc(S(=O)(=O)/N=C(\N)n2nc(C)c(C)c2C)c(SCc2ccccc2)cc1Cl | 14 | > 100 | > 100 | > 100 | 3.23 | > 100 | > 100 | > 100 | > 100 | > 100 | 58.6 | > 100 | 7.99 | > 100 | > 100 | > 100 |
